Source: patent US9695155B2, “Herbicidal substituted pyrimidinyloxy benzene compounds” (E. I. DU PONT DE NEMOURS AND COMPANY, priority 2013, dated 2017)

Assays:
soybean = test: Test E preemergence; format: in vivo, Glycine max; conditions: for Soybean plant response rating: scale 0 to 100 (0 no effect, 100 complete control); for Plant response rating, Soybean: scale 0 to 100, 0 no effect, 100 complete control
Procedure, shortened: (§1)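 Test chemicals formulated in a non-phytotoxic solvent mixture containing a surfactant were applied preemergence to seeds in silt loam soil or postemergence to plants at the 1- to 4-leaf stage in potting mix. After 14 to 21 days in a greenhouse, injury was visually rated against controls on a 0-100 scale (0 = no effect, 100 = complete control).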

velvetleaf = test: Test E preemergence; format: in vivo, Abutilon theophrasti; conditions: for Velvetleaf plant response rating: scale 0 to 100 (0 no effect, 100 complete control); for Plant response rating, Velvetleaf: scale 0 to 100, 0 no effect, 100 complete control
Procedure, shortened: as §1

wild poinsettia = test: Test E preemergence; format: in vivo, Euphorbia heterophylla; conditions: for Poinsettia, Wild plant response rating: scale 0 to 100 (0 no effect, 100 complete control); for Plant response rating, Poinsettia, Wild: scale 0 to 100, 0 no effect, 100 complete control
Procedure, shortened: as §1

waterhemp = test: Test E preemergence; format: in vivo, Amaranthus rudis; conditions: for Waterhemp plant response rating: scale 0 to 100 (0 no effect, 100 complete control); for Plant response rating, Waterhemp: scale 0 to 100, 0 no effect, 100 complete control
Procedure, shortened: as §1

Brazilian crabgrass = test: Test E preemergence; format: in vivo, Digitaria horizontalis; conditions: for Crabgrass, Brazil plant response rating: scale 0 to 100 (0 no effect, 100 complete control); for Plant response rating, Crabgrass, Brazil: scale 0 to 100, 0 no effect, 100 complete control
Procedure, shortened: as §1

giant foxtail = test: Test E preemergence; format: in vivo, Setaria faberii; conditions: for Foxtail, Giant plant response rating: scale 0 to 100 (0 no effect, 100 complete control); for Plant response rating, Foxtail, Giant: scale 0 to 100, 0 no effect, 100 complete control
Procedure, shortened: as §1

green foxtail = test: Test E preemergence; format: in vivo, Setaria viridis; conditions: for Foxtail, Green plant response rating: scale 0 to 100 (0 no effect, 100 complete control); for Plant response rating, Foxtail, Green: scale 0 to 100, 0 no effect, 100 complete control
Procedure, shortened: as §1

sandbur = test: Test E preemergence; format: in vivo, Cenchrus echinatus; conditions: for Sandbur plant response rating: scale 0 to 100 (0 no effect, 100 complete control); for Plant response rating, Sandbur: scale 0 to 100, 0 no effect, 100 complete control
Procedure, shortened: as §1

Italian ryegrass = test: Test E preemergence; format: in vivo, Lolium multiflorum; conditions: for Ryegrass, Italian plant response rating: scale 0 to 100 (0 no effect, 100 complete control); for Plant response rating, Ryegrass, Italian: scale 0 to 100, 0 no effect, 100 complete control
Procedure, shortened: as §1

yellow nutsedge = test: Test E preemergence; format: in vivo, Cyperus esculentus; conditions: for Nutsedge, Yellow plant response rating: scale 0 to 100 (0 no effect, 100 complete control); for Plant response rating, Nutsedge, Yellow: scale 0 to 100, 0 no effect, 100 complete control
Procedure, shortened: as §1

hairy beggarticks = test: Test E preemergence; format: in vivo, Bidens pilosa; conditions: for Beggarticks plant response rating: scale 0 to 100 (0 no effect, 100 complete control); for Plant response rating, Beggarticks: scale 0 to 100, 0 no effect, 100 complete control
Procedure, shortened: as §1

corn = test: Test E postemergence; format: in vivo, Zea mays; conditions: Zea mays, post-emergence
Procedure, shortened: as §1

palmer pigweed = test: Test E postemergence; format: in vivo, Amaranthus palmeri; conditions: post-emergence, read-out: Plant response rating, Pigweed, Palmer
Procedure, shortened: as §1

fall panicum = test: Test E postemergence; format: in vivo, Panicum dichotomiflorum; conditions: Panicum dichotomiflorum, post-emergence, read-out: Plant response rating, Panicum, Fall
Procedure, shortened: as §1

barnyardgrass = test: Test E postemergence; format: in vivo, Echinochloa crus-galli; conditions: Echinochloa crus-galli, post-emergence, read-out: Plant response rating, Barnyardgrass
Procedure, shortened: as §1

[1] = Postemergence, 31 g ai/ha, scale 0 to 100
[2] = Postemergence, 62 g ai/ha, scale 0 to 100
[3] = Postemergence, 125 g ai/ha, scale 0 to 100
[4] = postemergence, 16 g ai/ha, scale 0 to 100, 0 no effect, 100 complete control

N#Cc1cccc(Oc2ncc(Cl)cn2)c1-n1cc(Br)cn1 [Compound 52, 2-(4-bromo-1H-pyrazol-1-yl)-3-[(5-chloro-2-pyrimidinyl)oxy]benzonitrile]
Soybean plant response rating (soybean; 16 g ai/ha): 0 | Soybean plant response rating (soybean; 31 g ai/ha): 0 | Soybean plant response rating (soybean; 62 g ai/ha): 0 | Plant response rating, Soybean (soybean; 125 g ai/ha): 60 | Plant response rating, Soybean (soybean; 250 g ai/ha): 90 | Velvetleaf plant response rating (velvetleaf; 16 g ai/ha): 0 | Velvetleaf plant response rating (velvetleaf; 31 g ai/ha): 0 | Velvetleaf plant response rating (velvetleaf; 62 g ai/ha): 75 | Plant response rating, Velvetleaf (velvetleaf; 125 g ai/ha): 85 | Plant response rating, Velvetleaf (velvetleaf; 250 g ai/ha): 90 | Poinsettia, Wild plant response rating (wild poinsettia; 16 g ai/ha): 0 | Poinsettia, Wild plant response rating (wild poinsettia; 31 g ai/ha): 0 | Poinsettia, Wild plant response rating (wild poinsettia; 62 g ai/ha): 25 | Plant response rating, Poinsettia, Wild (wild poinsettia; 125 g ai/ha): 50 | Plant response rating, Poinsettia, Wild (wild poinsettia; 250 g ai/ha): 100 | Waterhemp plant response rating (waterhemp; 16 g ai/ha): 80 | Waterhemp plant response rating (waterhemp; 31 g ai/ha): 100 | Waterhemp plant response rating (waterhemp; 62 g ai/ha): 100 | Plant response rating, Waterhemp (waterhemp; 125 g ai/ha): 100 | Plant response rating, Waterhemp (waterhemp; 250 g ai/ha): 100 | Crabgrass, Brazil plant response rating (Brazilian crabgrass; 16 g ai/ha): 0 | Crabgrass, Brazil plant response rating (Brazilian crabgrass; 31 g ai/ha): 90 | Crabgrass, Brazil plant response rating (Brazilian crabgrass; 62 g ai/ha): 100 | Plant response rating, Crabgrass, Brazil (Brazilian crabgrass; 125 g ai/ha): 100 | Plant response rating, Crabgrass, Brazil (Brazilian crabgrass; 250 g ai/ha): 100 | Foxtail, Giant plant response rating (giant foxtail; 16 g ai/ha): 0 | Foxtail, Giant plant response rating (giant foxtail; 31 g ai/ha): 70 | Foxtail, Giant plant response rating (giant foxtail; 62 g ai/ha): 70 | Plant response rating, Foxtail, Giant (giant foxtail; 125 g ai/ha): 100 | Plant response rating, Foxtail, Giant (giant foxtail; 250 g ai/ha): 100 | Foxtail, Green plant response rating (green foxtail; 16 g ai/ha): 0 | Foxtail, Green plant response rating (green foxtail; 31 g ai/ha): 20 | Foxtail, Green plant response rating (green foxtail; 62 g ai/ha): 75 | Plant response rating, Foxtail, Green (green foxtail; 125 g ai/ha): 80 | Plant response rating, Foxtail, Green (green foxtail; 250 g ai/ha): 100 | Sandbur plant response rating (sandbur; 16 g ai/ha): 0 | Sandbur plant response rating (sandbur; 31 g ai/ha): 0 | Sandbur plant response rating (sandbur; 62 g ai/ha): 10 | Plant response rating, Sandbur (sandbur; 125 g ai/ha): 35 | Plant response rating, Sandbur (sandbur; 250 g ai/ha): 80 | Ryegrass, Italian plant response rating (Italian ryegrass; 16 g ai/ha): 0 | Ryegrass, Italian plant response rating (Italian ryegrass; 31 g ai/ha): 0 | Ryegrass, Italian plant response rating (Italian ryegrass; 62 g ai/ha): 0 | Plant response rating, Ryegrass, Italian (Italian ryegrass; 125 g ai/ha): 60 | Plant response rating, Ryegrass, Italian (Italian ryegrass; 250 g ai/ha): 90 | Nutsedge, Yellow plant response rating (yellow nutsedge; 16 g ai/ha): 0 | Nutsedge, Yellow plant response rating (yellow nutsedge; 31 g ai/ha): 0 | Nutsedge, Yellow plant response rating (yellow nutsedge; 62 g ai/ha): 0 | Plant response rating, Nutsedge, Yellow (yellow nutsedge; 125 g ai/ha): 25 | Plant response rating, Nutsedge, Yellow (yellow nutsedge; 250 g ai/ha): 50 | Beggarticks plant response rating (hairy beggarticks; 16 g ai/ha, preemergence): 0 | Beggarticks plant response rating (hairy beggarticks; 31 g ai/ha, preemergence): 0 | Plant response rating, Beggarticks (hairy beggarticks; Preemergence, 62 g ai/ha): 0 | Plant response rating, Beggarticks (hairy beggarticks; preemergence, 125 g ai/ha): 40 | Plant response rating, Beggarticks (hairy beggarticks; preemergence, 250 g ai/ha): 65 | corn plant response (injury) rating, 0-100 at 31 g/ha (corn; [1]): 10% | corn plant response (injury) rating, 0-100 at 62 g/ha (corn; [2]): 20% | corn plant response (injury) rating, 0-100 at 125 g/ha (corn; [3]): 25% | corn plant response (injury) rating, 0-100 at 16 g/ha (corn; [4]): 10% | pest or weed control at 31 g/ha (palmer pigweed; [1]): 70% | pest or weed control at 62 g/ha (palmer pigweed; [2]): 95% | pest or weed control at 125 g/ha (palmer pigweed; [3]): 95% | pest or weed control at 16 g/ha (palmer pigweed; [4]): 60% | pest or weed control at 31 g/ha (fall panicum; [1]): 10% | pest or weed control at 62 g/ha (fall panicum; [2]): 10% | pest or weed control at 125 g/ha (fall panicum; [3]): 40% | pest or weed control at 16 g/ha (fall panicum; [4]): 5% | pest or weed control at 31 g/ha (barnyardgrass; [1]): 10% | pest or weed control at 62 g/ha (barnyardgrass; [2]): 20% | pest or weed control at 125 g/ha (barnyardgrass; [3]): 30% | pest or weed control at 16 g/ha (barnyardgrass; [4]): 5%
